Reference: patent publication US9693556B2, “Herbicidal pyridazinone derivatives” (SYNGENTA LIMITED, priority 2011, dated 2017)

Columns and labels:
Type in all cases: in vivo
[1] = system: Alopecurus myosuroides (ALOMY); test: Pre-emergence herbicidal glasshouse test on Alopecurus myosuroides; details: pre-emergence; 1000 g/h; evaluated after 13 days
In short: (§1)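 Scored on a five-point scale (1 = 0-19% to 5 = 80-100% damage) 13 days after treatment. Application rate 1000 g/h in acetone/water (50:50) containing 0.5% Tween 20, sprayed one day post-sowing for pre-emergence or eight days for post-emergence; glasshouse at 24/16° C, 14 h light, 65% humidity.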

Setaria faberi (SETFA) [2] = test: Pre-emergence herbicidal glasshouse test on Setaria faberi; details: pre-emergence; 1000 g/h; evaluated after 13 days
In short: as §1

[3] = system: Echinochloa crus-galli (ECHCG); test: Pre-emergence herbicidal glasshouse test on Echinochloa crus-galli; details: pre-emergence; 1000 g/h; evaluated after 13 days
In short: as §1

Solanum nigrum (SOLNI) [4] = test: Pre-emergence herbicidal glasshouse test on Solanum nigrum; details: pre-emergence; 1000 g/h; evaluated after 13 days
In short: as §1

[5] = system: Amaranthus retoflexus (AMARE); test: Pre-emergence herbicidal glasshouse test on Amaranthus retoflexus; details: pre-emergence; 1000 g/h; evaluated after 13 days
In short: as §1

[6] = system: Ipomoea hederacea (IPOHE); test: Pre-emergence herbicidal glasshouse test on Ipomoea hederacea; details: pre-emergence; 1000 g/h; evaluated after 13 days
In short: as §1

[7] = system: Alopecurus myosuroides (ALOMY); test: Post-emergence herbicidal glasshouse test on Alopecurus myosuroides; details: post-emergence; 1000 g/h; evaluated after 13 days
In short: as §1

Setaria faberi (SETFA) [8] = test: Post-emergence herbicidal glasshouse test on Setaria faberi; details: post-emergence; 1000 g/h; evaluated after 13 days
In short: as §1

[9] = system: Echinochloa crus-galli (ECHCG); test: Post-emergence herbicidal glasshouse test on Echinochloa crus-galli; details: post-emergence; 1000 g/h; evaluated after 13 days
In short: as §1

Solanum nigrum (SOLNI) [10] = test: Post-emergence herbicidal glasshouse test on Solanum nigrum; details: post-emergence; 1000 g/h; evaluated after 13 days
In short: as §1

[11] = system: Amaranthus retoflexus (AMARE); test: Post-emergence herbicidal glasshouse test on Amaranthus retoflexus; details: post-emergence; 1000 g/h; evaluated after 13 days
In short: as §1

[12] = system: Ipomoea hederacea (IPOHE); test: Post-emergence herbicidal glasshouse test on Ipomoea hederacea; details: post-emergence; 1000 g/h; evaluated after 13 days
In short: as §1

| SMILES | PRE Application ALOMY herbicidal damage (five point scale) [1] | PRE Application SETFA herbicidal damage (five point scale) (Setaria faberi (SETFA) [2]) | PRE Application ECHCG herbicidal damage (five point scale) [3] | PRE Application SOLNI herbicidal damage (five point scale) (Solanum nigrum (SOLNI) [4]) | PRE Application AMARE herbicidal damage (five point scale) [5] | PRE Application IPOHE herbicidal damage (five point scale) [6] | POST Application ALOMY herbicidal damage (five point scale) [7] | POST Application SETFA herbicidal damage (five point scale) (Setaria faberi (SETFA) [8]) | POST Application ECHCG herbicidal damage (five point scale) [9] | POST Application SOLNI herbicidal damage (five point scale) (Solanum nigrum (SOLNI) [10]) | POST Application AMARE herbicidal damage (five point scale) [11] | POST Application IPOHE herbicidal damage (five point scale) [12] |
| --- | --- | --- | --- | --- | --- | --- | --- | --- | --- | --- | --- | --- |
| Cn1ncc(-n2ccc(C(F)(F)F)c(-c3ccc([N+](=O)[O-])cc3)c2=O)c(O)c1=O [Compound 7.009] | 5 (5=80-100% damage) | 5 (5=80-100% damage) | 5 (5=80-100% damage) | 5 (5=80-100% damage) | 5 (5=80-100% damage) | 4 (4=60-79% damage) | 5 (5=80-100% damage) | 5 (5=80-100% damage) | 5 (5=80-100% damage) | 5 (5=80-100% damage) | 5 (5=80-100% damage) | 5 (5=80-100% damage) |
| Cn1ncc(-n2ccc(C(F)(F)F)c(-c3ccc(C(F)(F)F)nc3)c2=O)c(O)c1=O [Compound 7.010] | 5 (5=80-100% damage) | 5 (5=80-100% damage) | 5 (5=80-100% damage) | 5 (5=80-100% damage) | 5 (5=80-100% damage) | 5 (5=80-100% damage) | 5 (5=80-100% damage) | 5 (5=80-100% damage) | 5 (5=80-100% damage) | 5 (5=80-100% damage) | 5 (5=80-100% damage) | 5 (5=80-100% damage) |
| C=Cc1cccc(-c2c(C(F)(F)F)ccn(-c3cnn(C)c(=O)c3O)c2=O)c1 [Compound 7.011] | 2 (2=20-39% damage) | 2 (2=20-39% damage) | 1 (1=0-19% damage) | 5 (5=80-100% damage) | 5 (5=80-100% damage) | 2 (2=20-39% damage) | 1 (1=0-19% damage) | 3 (3=40-59% damage) | 5 (5=80-100% damage) | 5 (5=80-100% damage) | 5 (5=80-100% damage) | 3 (3=40-59% damage) |
| Cn1ncc(-n2ccc(C(F)(F)F)c(-c3cccc(F)c3)c2=O)c(O)c1=O [Compound 7.012] | 5 (5=80-100% damage) | 5 (5=80-100% damage) | 5 (5=80-100% damage) | 5 (5=80-100% damage) | 5 (5=80-100% damage) | 1 (1=0-19% damage) | 5 (5=80-100% damage) | 5 (5=80-100% damage) | 5 (5=80-100% damage) | 5 (5=80-100% damage) | 5 (5=80-100% damage) | 5 (5=80-100% damage) |
| CC(C)c1cccc(-c2c(C(F)(F)F)ccn(-c3cnn(C)c(=O)c3O)c2=O)c1 [Compound 7.014] | 3 (3=40-59% damage) | 4 (4=60-79% damage) | 3 (3=40-59% damage) | 5 (5=80-100% damage) | 5 (5=80-100% damage) | 1 (1=0-19% damage) | 1 (1=0-19% damage) | 4 (4=60-79% damage) | 5 (5=80-100% damage) | 5 (5=80-100% damage) | 5 (5=80-100% damage) | 3 (3=40-59% damage) |
| COc1ccc(C(C)C)cc1-c1c(C(F)(F)F)ccn(-c2cnn(C)c(=O)c2O)c1=O [Compound 7.015] | 3 (3=40-59% damage) | 4 (4=60-79% damage) | 3 (3=40-59% damage) | 5 (5=80-100% damage) | 5 (5=80-100% damage) | 4 (4=60-79% damage) | 2 (2=20-39% damage) | 3 (3=40-59% damage) | 4 (4=60-79% damage) | 5 (5=80-100% damage) | 5 (5=80-100% damage) | 3 (3=40-59% damage) |
| CCOc1cccc(-c2c(C(F)(F)F)ccn(-c3cnn(C)c(=O)c3O)c2=O)c1 [Compound 7.016] | 2 (2=20-39% damage) | 2 (2=20-39% damage) | 2 (2=20-39% damage) | 5 (5=80-100% damage) | 5 (5=80-100% damage) | 1 (1=0-19% damage) | 2 (2=20-39% damage) | 2 (2=20-39% damage) | 2 (2=20-39% damage) | 5 (5=80-100% damage) | 5 (5=80-100% damage) | 1 (1=0-19% damage) |
| Cn1ncc(-n2ccc(C(F)(F)F)c(-c3cc(F)c(F)c(F)c3)c2=O)c(O)c1=O [Compound 7.017] | 5 (5=80-100% damage) | 5 (5=80-100% damage) | 5 (5=80-100% damage) | 5 (5=80-100% damage) | 5 (5=80-100% damage) | 4 (4=60-79% damage) | 5 (5=80-100% damage) | 5 (5=80-100% damage) | 5 (5=80-100% damage) | 5 (5=80-100% damage) | 5 (5=80-100% damage) | 5 (5=80-100% damage) |
